From patent US20050176655A1, “Novel macrolide derivatives havaing effect of potentiating antifungal activity” (priority 2002, published 2005)

Columns and labels:
Assay in all cases: Paper disk method, enhancing action for activities of azole antifungal agents
Assay type in all cases: cell-based
[1] = test system: fluconazole resistant Candida albicans ATCC 64550; details: 50 μg/8 mm disk, 24 hours; for Inhibition activity (inhibition ring mm) C. albicans ATCC 64550 GYF / Transparency of the inhibition ring C. albicans ATCC 64550 GYF: fluconazole 30 μg/ml; for Inhibition activity (inhibition ring mm) C. albicans ATCC 64550 GYM / Transparency of the inhibition ring C. albicans ATCC 64550 GYM: miconazole 0.15 μg/ml
Method: (§1) Test organisms used were Candida albicans ATCC 64548, fluconazole resistant Candida albicans ATCC 64550 and Aspergillus niger ATCC 6275. Candida spp. were cultured in Waksman broth (glucose 2.0%, peptone 0.5%, dry yeast 0.3%, meat extract 0.5%, NaCl 0.5% and CaCO3 0.3%, pH 7.0) at 27° C. for 40 hours, then 0.1% thereof was inoculated on GY agar medium (glucose 1.0%, yeast extract 0.5% and agar 0.8%, pH 6.0). Spore suspension 0.2% of Aspergillus niger ATCC 6275 was inoculated on GY agar medium.
(§2) Azole antifungal agents used were miconazole (Sigma Inc., the U.S.) and fluconazole (ICN Pharmaceuticals, Inc., the U.S.), and were added at concentrations without affecting growth on each test organisms follows.
Candida albicans ATCC 64550: miconazole 0.15 μg/ml or fluconazole 30 μg/ml.
(§3) In the above medium, a medium added with miconazole to GY medium (control) is designated as GYM, and a medium added with fluconazole is designated as GYF. Activities were assessed by means of paper disk method (thickness: 8 mm, ADVANTEC MFS INC., Japan). Diameter of inhibition ring is expressed with mm unit after culturing Candida spp. for 24 hours and Aspergillus niger ATCC 6275 for 48 hours. Transparency of the inhibition ring is assessed with 5 degrees of A, B, C, D and E (transparence<A<B<C<D<E<opaque).

[2] = test system: Aspergillus niger ATCC 6275; details: 48 hours; for Inhibition activity (inhibition ring mm) A. niger ATCC 6275 GYF / Transparency of the inhibition ring A. niger ATCC 6275 GYF: fluconazole 10 μg/ml; for Inhibition activity (inhibition ring mm) A. niger ATCC 6275 GYM / Transparency of the inhibition ring A. niger ATCC 6275 GYM: miconazole 0.1 μg/ml
Method: as §1, §2
Aspergillus niger ATCC 6275: miconazole 0.1 μg/ml or fluconazole 10 μg/ml.
as §3

[3] = test system: Candida albicans ATCC 64548; details: 24 hours; for Inhibition activity (inhibition ring mm) C. albicans ATCC 64548 GYM / Transparency of the inhibition ring C. albicans ATCC 64548 GYM: miconazole 0.03 μg/ml; for Inhibition activity (inhibition ring mm) C. albicans ATCC 64548 GYF / Transparency of the inhibition ring C. albicans ATCC 64548 GYF: fluconazole 0.5 μg/ml
Procedure, shortened: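 GY agar (pH 6.0) seeded with C. albicans ATCC 64548 precultured in Waksman broth at 27° C for 40 hours, supplemented with sub-growth-inhibitory miconazole 0.03 μg/ml or fluconazole 0.5 μg/ml. Paper disk method; inhibition-zone diameter (mm) read after 24 hours, transparency graded A–E.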

[4] = 50 μg/8 mm disk, GY medium (control, no azole)

CCC(OC(=O)c1ccccc1)C(C)(O)C1OC(=O)C(C)C(OC2CC(C)(OC)C(O)C(C)O2)C(C)C(OC2OC(C)CC(N(C)C)C2O)C2(C)CC(C)=C(O2)C1C (centres unmarked) [Compound 779, 13-O -benzoyl-8,9-Anhydro-pseudoerythro-mycin A 6,9-hemiketal]
Inhibition activity (inhibition ring mm) C. albicans ATCC 64550 GYF [1]: 10 mm
Transparency of the inhibition ring C. albicans ATCC 64550 GYF [1]: E (Growth of test organism was inhibited 35% or less.)
Inhibition activity (inhibition ring mm) C. albicans ATCC 64550 GYM [1]: 11 mm
Transparency of the inhibition ring C. albicans ATCC 64550 GYM [1]: D (Growth of test organism was inhibited 35% or more and 55% or less.)
Inhibition activity (inhibition ring mm) A. niger ATCC 6275 GYF ([2]; 10 μg/8 mm disk): 11 mm
Transparency of the inhibition ring A. niger ATCC 6275 GYF ([2]; 10 μg/8 mm disk): E (Growth of test organism was inhibited 35% or less.)
Inhibition activity (inhibition ring mm) A. niger ATCC 6275 GY [2, 4]: 11 mm
Transparency of the inhibition ring A. niger ATCC 6275 GY [2, 4]: E (Growth of test organism was inhibited 35% or less.)
Inhibition activity (inhibition ring mm) A. niger ATCC 6275 GYF ([2]; 50 μg/8 mm disk): 13 mm
Transparency of the inhibition ring A. niger ATCC 6275 GYF ([2]; 50 μg/8 mm disk): D (Growth of test organism was inhibited 35% or more and 55% or less.)
Inhibition activity (inhibition ring mm) A. niger ATCC 6275 GYM ([2]; 50 μg/8 mm disk): 17 mm
Transparency of the inhibition ring A. niger ATCC 6275 GYM ([2]; 50 μg/8 mm disk): E (Growth of test organism was inhibited 35% or less.)
Inhibition activity (inhibition ring mm) C. albicans ATCC 64548 GYM ([3]; 10 μg/8 mm disk): 10 mm
Transparency of the inhibition ring C. albicans ATCC 64548 GYM ([3]; 10 μg/8 mm disk): E (Growth of test organism was inhibited 35% or less.)
Inhibition activity (inhibition ring mm) C. albicans ATCC 64548 GYF ([3]; 50 μg/8 mm disk): 9 mm
Transparency of the inhibition ring C. albicans ATCC 64548 GYF ([3]; 50 μg/8 mm disk): D (Growth of test organism was inhibited 35% or more and 55% or less.)
Inhibition activity (inhibition ring mm) C. albicans ATCC 64548 GYM ([3]; 50 μg/8 mm disk): 15 mm
Transparency of the inhibition ring C. albicans ATCC 64548 GYM ([3]; 50 μg/8 mm disk): A (Growth of test organism was inhibited 95% or more.)

CCC(=O)OC1C(C)OC(OC2C(C)C(=O)OC(C(C)(O)C(CC)OC(=O)CC)C(C)C3=C(C)CC(C)(O3)C(OC3OC(C)CC(N(C)C)C3O)C2C)CC1(C)OC (centres unmarked) [Compound 776, 4″,13-Di-O-propionyl-8,9-Anhydro-pseudo-erythromycin A 6,9-hemiketal]
Inhibition activity (inhibition ring mm) C. albicans ATCC 64550 GYF [1]: 9 mm
Transparency of the inhibition ring C. albicans ATCC 64550 GYF [1]: E (Growth of test organism was inhibited 35% or less.)
Inhibition activity (inhibition ring mm) C. albicans ATCC 64550 GYM [1]: 11 mm
Transparency of the inhibition ring C. albicans ATCC 64550 GYM [1]: E (Growth of test organism was inhibited 35% or less.)
Inhibition activity (inhibition ring mm) A. niger ATCC 6275 GYF ([2]; 10 μg/8 mm disk): 16 mm
Transparency of the inhibition ring A. niger ATCC 6275 GYF ([2]; 10 μg/8 mm disk): E (Growth of test organism was inhibited 35% or less.)
Inhibition activity (inhibition ring mm) A. niger ATCC 6275 GYF ([2]; 50 μg/8 mm disk): 16 mm
Transparency of the inhibition ring A. niger ATCC 6275 GYF ([2]; 50 μg/8 mm disk): E (Growth of test organism was inhibited 35% or less.)
Inhibition activity (inhibition ring mm) A. niger ATCC 6275 GYM ([2]; 50 μg/8 mm disk): 20 mm
Transparency of the inhibition ring A. niger ATCC 6275 GYM ([2]; 50 μg/8 mm disk): C (Growth of test organism was inhibited 55% or more and 75% or less.)
Inhibition activity (inhibition ring mm) C. albicans ATCC 64548 GYM ([3]; 50 μg/8 mm disk): 11 mm
Transparency of the inhibition ring C. albicans ATCC 64548 GYM ([3]; 50 μg/8 mm disk): D (Growth of test organism was inhibited 35% or more and 55% or less.)
Inhibition activity (inhibition ring mm) C. albicans ATCC 64548 GYF ([3]; 100 μg/8 mm disk): 15 mm
Transparency of the inhibition ring C. albicans ATCC 64548 GYF ([3]; 100 μg/8 mm disk): E (Growth of test organism was inhibited 35% or less.)
